# In PubChem BioAssay (NCI):
#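 Interpolation was linear, between the two tested concentrations surrounding the appropriate level; five concentrations were tested over 48 hours in 96-well plates. TGI denotes the concentration required for complete inhibition of growth.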
# How the values were obtained:
# Assay in all cases: inhibition of tumour cell growth, NCI panel, 48 h
# [1] = system: M19-MEL melanoma
# [2] = system: SW-620 colon
# [3] = system: HCT-15 colon
# [4] = system: DMS 273 small cell lung
# [5] = system: HOP-18 NSCLC
# [6] = system: SK-OV-3 ovarian
# [7] = system: COLO 205 colon
# [8] = system: MALME-3M melanoma
# [9] = system: SF-295 CNS
# [10] = system: OVCAR-4 ovarian
# [11] = system: DLD-1 colon
# [12] = system: NCI-H23 lung
# [13] = system: UO-31 renal
# [14] = system: SF-539 CNS
# [15] = system: DMS 114 small cell lung
# [16] = system: U251 CNS
# [17] = system: OVCAR-8 ovarian
# [18] = system: HL-60(TB) leukemia
# [19] = system: SK-MEL-5 melanoma
# [20] = system: A498 renal
# [21] = system: MOLT-4 leukemia
# [22] = system: KM12 colon
# [23] = system: CCRF-CEM leukemia
# [24] = system: RPMI-8226 leukemia
# [25] = system: NCI-H522 lung
# [26] = system: TK-10 renal
# [27] = system: HT29 colon
# [28] = system: SNB-78 CNS
# [29] = system: SK-MEL-28 melanoma
# [30] = system: SNB-75 CNS
# [31] = system: IGROV1 ovarian
# [32] = system: LXFL 529 NSCLC
# [33] = system: NCI-H460 lung
# [34] = system: 786-0 renal
# [35] = system: CAKI-1 renal
# [36] = system: K-562 leukemia
# [37] = system: LOX IMVI melanoma
# [38] = system: SF-268 CNS
# [39] = system: HCT-116 colon
# [40] = system: HOP-62 NSCLC
# [41] = system: SN12C renal
# [42] = system: SNB-19 CNS
# [43] = system: NCI-H226 lung
# [44] = system: OVCAR-5 ovarian
# [45] = system: A549 NSCLC
# [46] = system: KM20L2 colon
# [47] = system: RXF 393 renal
# [48] = system: EKVX NSCLC
# [49] = system: UACC-257 melanoma
# [50] = system: UACC-62 melanoma
# [51] = system: HCC-2998 colon
# [52] = system: ACHN renal
# [53] = system: OVCAR-3 ovarian
# [54] = system: SK-MEL-2 melanoma
# [55] = system: M14 melanoma
# [56] = system: SR leukemia
structure (smiles),measurement,setting,value
O=C1c2ccccc2C2(O)Nc3c(ccc4ccccc34)C12O (stereo unspecified),TGI,[1],> 100 µM
same,TGI,[2],> 100 µM
same,TGI,[3],> 100 µM
same,TGI,[4],> 100 µM
same,TGI,[5],> 100 µM
same,TGI,[6],> 100 µM
same,TGI,[7],> 100 µM
same,TGI,[8],> 100 µM
same,TGI,[9],> 100 µM
same,TGI,[10],> 100 µM
same,TGI,[11],> 100 µM
same,TGI,[12],> 100 µM
same,TGI,[13],> 100 µM
same,TGI,[14],> 100 µM
same,TGI,[15],> 100 µM
same,TGI,[16],> 100 µM
same,TGI,[17],> 100 µM
same,TGI,[18],> 100 µM
same,TGI,[19],> 100 µM
same,TGI,[20],> 100 µM
same,TGI,[21],> 100 µM
same,TGI,[22],> 100 µM
same,TGI,[23],> 100 µM
same,TGI,[24],> 100 µM
same,TGI,[25],> 100 µM
same,TGI,[26],> 100 µM
same,TGI,[27],> 100 µM
same,TGI,[28],> 100 µM
same,TGI,[29],> 100 µM
same,TGI,[30],> 100 µM
same,TGI,[31],> 100 µM
same,TGI,[32],> 100 µM
same,TGI,[33],> 100 µM
same,TGI,[34],> 100 µM
same,TGI,[35],> 100 µM
same,TGI,[36],> 100 µM
same,TGI,[37],> 100 µM
same,TGI,[38],> 100 µM
same,TGI,[39],> 100 µM
same,TGI,[40],> 100 µM
same,TGI,[41],> 100 µM
same,TGI,[42],> 100 µM
same,TGI,[43],> 100 µM
same,TGI,[44],> 100 µM
same,TGI,[45],> 100 µM
same,TGI,[46],> 100 µM
same,TGI,[47],> 100 µM
same,TGI,[48],> 100 µM
same,TGI,[49],> 100 µM
same,TGI,[50],> 100 µM
same,TGI,[51],> 100 µM
same,TGI,[52],> 100 µM
same,TGI,[53],> 100 µM
same,TGI,[54],> 100 µM
same,TGI,[55],> 100 µM
CN(C)CC/C(=N\Nc1c(F)c(F)c(F)c(F)c1F)c1ccccc1,TGI,[1],> 100 µM
same,TGI,[2],> 100 µM
same,TGI,[3],> 100 µM
same,TGI,[4],> 100 µM
same,TGI,[5],> 100 µM
same,TGI,[6],> 100 µM
same,TGI,[7],> 100 µM
same,TGI,[8],> 100 µM
same,TGI,[9],> 100 µM
same,TGI,[10],> 100 µM
same,TGI,[11],> 100 µM
same,TGI,[12],> 100 µM
same,TGI,[13],63.4 µM
same,TGI,[14],> 100 µM
same,TGI,[15],79.2 µM
same,TGI,[16],> 100 µM
same,TGI,[17],> 100 µM
same,TGI,[18],28.2 µM
same,TGI,[19],28 µM
same,TGI,[20],> 100 µM
same,TGI,[21],> 100 µM
same,TGI,[22],> 100 µM
same,TGI,[23],95.5 µM
same,TGI,[24],70.5 µM
same,TGI,[25],> 100 µM
same,TGI,[26],> 100 µM
same,TGI,[27],> 100 µM
same,TGI,[28],> 100 µM
same,TGI,[29],> 100 µM
same,TGI,[30],13.1 µM
same,TGI,[31],> 100 µM
same,TGI,[32],> 100 µM
same,TGI,[33],> 100 µM
same,TGI,[34],> 100 µM
same,TGI,[56],47.9 µM
same,TGI,[36],> 100 µM
same,TGI,[37],> 100 µM
same,TGI,[38],> 100 µM
same,TGI,[39],> 100 µM
same,TGI,[41],> 100 µM
same,TGI,[42],> 100 µM
same,TGI,[44],> 100 µM
same,TGI,[45],> 100 µM
same,TGI,[46],> 100 µM
same,TGI,[47],> 100 µM
same,TGI,[48],> 100 µM
same,TGI,[49],80.6 µM
same,TGI,[50],> 100 µM
same,TGI,[52],> 100 µM
same,TGI,[54],> 100 µM
COC1OC(C)C(OC(=O)C(C)(C)C)C(OS(=O)(=O)c2ccc(C)cc2)C1OS(=O)(=O)c1ccc(C)cc1 (stereo unspecified),TGI,[1],> 100 µM
same,TGI,[2],> 100 µM
same,TGI,[3],> 100 µM
same,TGI,[4],> 100 µM
same,TGI,[5],> 100 µM
same,TGI,[6],> 100 µM
same,TGI,[7],> 100 µM
same,TGI,[8],> 100 µM
same,TGI,[9],> 100 µM
same,TGI,[10],> 100 µM
same,TGI,[11],> 100 µM
same,TGI,[12],> 100 µM
same,TGI,[13],> 100 µM
same,TGI,[14],> 100 µM
same,TGI,[15],> 100 µM
same,TGI,[16],> 100 µM
same,TGI,[17],> 100 µM
same,TGI,[18],> 100 µM
same,TGI,[19],> 100 µM
same,TGI,[21],> 100 µM
same,TGI,[22],> 100 µM
same,TGI,[23],> 100 µM
same,TGI,[24],> 100 µM
same,TGI,[25],> 100 µM
same,TGI,[27],> 100 µM
same,TGI,[28],> 100 µM
same,TGI,[29],> 100 µM
same,TGI,[30],> 100 µM
same,TGI,[31],> 100 µM
same,TGI,[32],> 100 µM
same,TGI,[33],> 100 µM
same,TGI,[34],> 100 µM
same,TGI,[56],> 100 µM
same,TGI,[35],> 100 µM
same,TGI,[36],> 100 µM
same,TGI,[38],> 100 µM
same,TGI,[39],> 100 µM
same,TGI,[40],> 100 µM
same,TGI,[41],> 100 µM
same,TGI,[42],> 100 µM
same,TGI,[43],> 100 µM
same,TGI,[44],> 100 µM
same,TGI,[45],> 100 µM
same,TGI,[46],> 100 µM
same,TGI,[47],> 100 µM
same,TGI,[49],> 100 µM
same,TGI,[51],> 100 µM
same,TGI,[52],> 100 µM
same,TGI,[53],> 100 µM
same,TGI,[54],> 100 µM
same,TGI,[55],> 100 µM
